# Laboratory results from patent US11612634B2 (priority 2020, dated 2023).
# Entries after “also recorded” stand apart in the source; their conditions may differ.
# Key:
# [1] = system: morphine analgesic tolerance, BCP rat model; assay: Effect on morphine analgesic tolerance in BCP rat model; type: in vivo
# Description: The successfully-established BCP model rats were divided into 4 groups randomly on the 22nd day after modeling, where the group A was injected with 0.2 μg/kg of the short peptide P10581; the group B was injected with 0.2 μg/kg of the short peptide P10581, and injected with 5 mg/kg of the morphine 30 min later; the group C was injected with 0.4 μg/kg of the short peptide P10581; and the group D was injected with 0.4 μg/kg of the short peptide P10581, and injected with 5 mg/kg of the morphine 30 min later. 1 h later, the PWT of the right hind paw of each group was recorded. Each of the rats was measured 3-5 times with an interval of 5-10 min, and the PWTs were averaged to taken as the practical PWT (unit: g). The drug administration was performed twice a day (at 9:30 a.m. and 4:30 p.m.) for consecutive 4 days, and the PWT of each group before and after the administration in the morning was measured.
# ΔPWT (%) in FIG. 15D was calculated as follows: ΔPWT(%)=100*{[PWT(post-drug)−PWT(pre-drug)]/ΔPWT(Maxi)}(%): […]
# [2] = system: morphine analgesic tolerance, inflammatory pain rat model; assay: Effect on morphine analgesic tolerance in Carr-induced inflammatory pain rat model; type: in vivo; details: for effect on morphine analgesic tolerance: every 2 h
# Description: The Carr-induced inflammatory pain model was built according to a published method (Alessandri-Haber N, et al. Neurosci. Vol 29(19), pp. 6217-6288, 2009) for evaluating an analgesic effect of drugs administered by intraplantar injection. Specifically, 6 μL of 1 wt % Carr solution was injected into the rats between the 2nd and 3rd toes of a left hind paw to induce hyperalgesia, which was manifested as plantar swelling and a declined pain threshold of the rats within 1 hour after the injection. Those rats with a PWT lower than 100 gf were considered to be a desired Carr-induced inflammatory pain model, those rats with the PWT higher than 100 gf was removed.
# (1) 24 healthy adult SD rats, weighing 180-220 g, were selected, reinjected with 6 μL of a 1 wt % Carr solution and divided into 4 groups randomly and averagely (i.e., groups A-D). The group A was injected with normal saline; the group B was intradermally injected with 0.1 μg/kg of the short peptide P10581 through the plantar surface of the left hind paw; the group C was intradermally injected with 0.1 μg/kg of the short peptide P10581 and then with 5 mg/kg of morphine 30 min later through the plantar surface of the left hind paw; and the group D was intradermally injected with 0.05 μg/kg of the short peptide P10581, and then with 5 mg/kg of morphine 30 min later through the plantar surface of the left hind paw. 1 h later, the PWT of each group was recorded when the mechanical withdrawal of the left hind paw occurred, and each rat was measured 3-5 times at an interval of 5-10 min.
# (2) The drug was injected every 2 h according to the above-mentioned administration dose and time (seven times in total), and the PWT was recorded.
# (S1) By means of molecular biological techniques, two cysteine residues (Cys10 and Cys11) in the short peptide P10581 were replaced with alanine (Ala), and the resulting peptide was named P10581-1 (SEQ ID NO: 2).
# (S2) Three cysteine residues (Cys10, Cys11 and Cys17) in the short peptide P10581 were replaced with alanine (Ala), and the resulting peptide was named P10581-2 (SEQ ID NO: 3).
# The rat was injected with 6 μL of 1 wt % Carr to establish a Carr-induced inflammatory pain model, and the effect of the short peptides P10581, P10581-1 and P10581-2 on the morphine analgesic tolerance was analyzed according to Experimental Example 1. […]
sequence,measurement,setting,value
WKCNPNDDKCCRPKLKC [P10581],reversal of morphine analgesic tolerance for BCP,"[1]; 0.2 μg/kg peptide S.C. before 5 mg/kg morphine, twice a day, 4 days",73.9%
same,restoration of analgesic effect of morphine on BCP,"[1]; 0.4 μg/kg peptide S.C. before 5 mg/kg morphine, repeated",completely restored
same,dose at which morphine analgesic tolerance is effectively eliminated,"[1]; BCP, rats",≥ 0.20 µg/kg
same,effect on morphine analgesic tolerance,[2]; 0.05 μg/kg peptide i.d. 30 min before 5 mg/kg morphine,morphine analgesic tolerance can be eliminated; also recorded: completely eliminate the morphine analgesic tolerance
same,duration of eliminating effect on morphine analgesic tolerance,[2]; 0.1 μg/kg and 0.05 μg/kg peptide with 5 mg/kg morphine,over 14 h
same,effect on morphine analgesic tolerance,[2]; 0.1 μg/kg peptide i.d. 30 min before 5 mg/kg morphine,morphine analgesic tolerance can be eliminated; also recorded: completely eliminated
same,dose at which morphine analgesic tolerance is effectively alleviated,"[2]; inflammatory pain, rats",≥ 0.05 µg/kg
